target: full-length ATR (Homo sapiens (Human), UniProt Q13535); experiment: ATR inhibition assay (radioactive-phosphate incorporation); type: biochemical; conditions: not given
Method: Example 76A: ATR Inhibition Assay
Compounds were screened for their ability to inhibit ATR kinase using a radioactive-phosphate incorporation assay. Assays were carried out in a mixture of 50 mM Tris/HCl (pH 7.5), 10 mM MgCl2 and 1 mM DTT.
Assays were carried out at 25° C. in the presence of 5 nM full-length ATR. An assay stock buffer solution was prepared containing all of the reagents listed above, with the exception of ATP and the test compound of interest. […] The plate was pre-incubated for 10 minutes at 25° C. and the reaction initiated by addition of 15 μL [γ-33P]ATP (final concentration 10 μM).
The reaction was stopped after […] by the addition of 30 μL, 0.1M phosphoric acid containing 2 mM ATP. A multiscreen phosphocellulose filter 96-well plate (Millipore, Cat no. MAPHN0B50) was pretreated with 100 μL, 0.2M phosphoric acid prior to the addition of 45 μL of the stopped assay mixture. […] After drying, 100 μL Optiphase ‘SuperMix’ liquid scintillation cocktail (Perkin Elmer) was added to the well prior to scintillation counting (1450 Microbeta Liquid Scintillation Counter, Wallac).
After removing mean background values for all of the data points, Ki(app) data were calculated from non-linear regression analysis of the initial rate data using the Prism software package (GraphPad Prism version 3.0cx for Macintosh, GraphPad Software, San Diego, Calif., USA).

Sequence of full-length ATR (Q13535 whole entry): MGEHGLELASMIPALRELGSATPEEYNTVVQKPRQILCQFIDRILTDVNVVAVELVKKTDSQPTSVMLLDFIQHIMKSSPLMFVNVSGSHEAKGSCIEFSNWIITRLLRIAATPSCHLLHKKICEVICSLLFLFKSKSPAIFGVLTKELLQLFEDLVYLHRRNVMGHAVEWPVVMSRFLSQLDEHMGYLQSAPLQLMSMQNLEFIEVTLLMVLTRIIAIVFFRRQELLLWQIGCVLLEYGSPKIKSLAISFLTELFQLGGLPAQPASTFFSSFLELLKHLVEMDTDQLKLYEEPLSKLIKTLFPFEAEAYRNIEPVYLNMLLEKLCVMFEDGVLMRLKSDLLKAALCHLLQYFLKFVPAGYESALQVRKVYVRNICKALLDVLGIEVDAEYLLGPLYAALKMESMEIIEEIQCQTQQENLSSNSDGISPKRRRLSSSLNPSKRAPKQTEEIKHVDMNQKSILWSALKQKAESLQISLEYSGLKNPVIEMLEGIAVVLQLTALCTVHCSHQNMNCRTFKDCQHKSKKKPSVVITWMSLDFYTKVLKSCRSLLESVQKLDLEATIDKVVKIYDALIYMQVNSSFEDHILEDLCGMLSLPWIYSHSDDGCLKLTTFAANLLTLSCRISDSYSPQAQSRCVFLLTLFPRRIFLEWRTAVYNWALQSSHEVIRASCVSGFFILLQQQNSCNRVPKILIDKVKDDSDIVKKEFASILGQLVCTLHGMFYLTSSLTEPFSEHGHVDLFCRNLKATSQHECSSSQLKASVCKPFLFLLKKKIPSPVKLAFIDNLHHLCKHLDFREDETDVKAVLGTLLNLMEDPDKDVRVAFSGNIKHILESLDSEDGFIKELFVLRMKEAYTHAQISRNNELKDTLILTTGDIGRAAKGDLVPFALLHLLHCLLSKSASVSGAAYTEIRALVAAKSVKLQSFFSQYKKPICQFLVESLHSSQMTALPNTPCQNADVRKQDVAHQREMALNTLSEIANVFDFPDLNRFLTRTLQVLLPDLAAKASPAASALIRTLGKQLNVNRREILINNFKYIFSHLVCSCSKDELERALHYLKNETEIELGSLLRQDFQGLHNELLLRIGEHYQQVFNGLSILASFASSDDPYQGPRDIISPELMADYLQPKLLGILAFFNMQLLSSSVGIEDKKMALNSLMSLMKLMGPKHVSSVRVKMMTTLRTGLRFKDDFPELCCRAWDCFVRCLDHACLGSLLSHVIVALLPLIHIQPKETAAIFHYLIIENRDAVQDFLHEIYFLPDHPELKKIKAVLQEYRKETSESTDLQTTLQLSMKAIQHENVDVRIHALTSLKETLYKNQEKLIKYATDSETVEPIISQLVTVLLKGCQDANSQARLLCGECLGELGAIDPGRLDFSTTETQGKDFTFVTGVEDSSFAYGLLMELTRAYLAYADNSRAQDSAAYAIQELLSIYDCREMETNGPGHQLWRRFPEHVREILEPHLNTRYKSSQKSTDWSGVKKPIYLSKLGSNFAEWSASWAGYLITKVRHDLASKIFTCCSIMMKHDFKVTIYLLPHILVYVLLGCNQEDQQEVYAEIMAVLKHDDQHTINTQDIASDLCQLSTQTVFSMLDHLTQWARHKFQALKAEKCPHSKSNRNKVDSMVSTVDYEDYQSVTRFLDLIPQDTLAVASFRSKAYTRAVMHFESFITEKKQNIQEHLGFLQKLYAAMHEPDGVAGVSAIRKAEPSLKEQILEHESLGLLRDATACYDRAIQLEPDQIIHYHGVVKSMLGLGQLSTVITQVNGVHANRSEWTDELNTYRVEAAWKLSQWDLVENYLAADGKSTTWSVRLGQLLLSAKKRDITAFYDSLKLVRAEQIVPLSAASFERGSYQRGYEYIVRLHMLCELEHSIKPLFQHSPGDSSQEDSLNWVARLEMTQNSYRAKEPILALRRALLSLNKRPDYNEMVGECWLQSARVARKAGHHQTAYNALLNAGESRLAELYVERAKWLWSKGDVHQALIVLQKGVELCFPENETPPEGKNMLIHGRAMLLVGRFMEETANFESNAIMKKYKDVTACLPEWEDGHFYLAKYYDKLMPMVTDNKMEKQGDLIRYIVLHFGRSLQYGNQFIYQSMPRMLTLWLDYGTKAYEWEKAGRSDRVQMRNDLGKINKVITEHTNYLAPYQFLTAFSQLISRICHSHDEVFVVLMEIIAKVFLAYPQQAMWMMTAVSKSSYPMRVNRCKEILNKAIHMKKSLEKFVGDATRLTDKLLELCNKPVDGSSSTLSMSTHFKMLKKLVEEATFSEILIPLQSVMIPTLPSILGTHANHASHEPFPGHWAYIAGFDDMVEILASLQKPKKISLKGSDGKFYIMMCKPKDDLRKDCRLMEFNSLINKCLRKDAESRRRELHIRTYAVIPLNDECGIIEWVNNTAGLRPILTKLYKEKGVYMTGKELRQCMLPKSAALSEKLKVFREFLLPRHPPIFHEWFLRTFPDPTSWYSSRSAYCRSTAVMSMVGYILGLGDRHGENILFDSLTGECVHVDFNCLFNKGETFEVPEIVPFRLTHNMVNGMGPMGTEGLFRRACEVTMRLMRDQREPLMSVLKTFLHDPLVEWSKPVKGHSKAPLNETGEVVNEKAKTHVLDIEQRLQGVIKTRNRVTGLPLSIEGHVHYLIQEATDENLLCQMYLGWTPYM

| Compound | Ki [nM] |
| --- | --- |
| CN(C)C1CCN(C(=O)c2cccc(-c3cnc(N)c(C(=O)Nc4ccccc4)n3)c2)C1 (stereo not shown) [Compound I-55, 3-amino-6-(3-(3-(dimethylamino)pyrrolidine-1-carbonyl)phenyl)-N-phenylpyrazine-2-carboxamide] | 100 to 5000 |
| Nc1ncc(-c2cccc(C(=O)NC3CCC(O)CC3)c2)nc1C(=O)Nc1ccccc1 (stereo not shown) [Compound I-57, 3-amino-6-(3-(4-hydroxycyclohexylcarbamoyl)phenyl)-N-phenylpyrazine-2-carboxamide] | 100 to 5000 |
| CN(C)C1CCN(C(=O)c2ccc(-c3cnc(N)c(C(=O)Nc4ccccc4)n3)cc2)C1 (stereo not shown) [Compound I-76, 3-amino-6-(4-(3-(dimethylamino)pyrrolidine-1-carbonyl)phenyl)-N-phenylpyrazine-2-carboxamide] | 10 to 100 |
| Nc1ncc(-c2ccc(C(=O)N3CCCNCC3)cc2)nc1-c1noc(-c2ccccc2)n1 [IA-2] | 10 to 100 |
| CC(C)(C)CCN1CCCN(C(=O)c2ccc(-c3cnc(N)c(-c4nnc(-c5ccccc5)o4)n3)cc2)CC1 [IA-27] | 10 to 100 |
| Nc1ncc(-c2ccc(C(=O)N3CCCNCC3)c3ccccc23)nc1-c1nnc(-c2ccccc2)o1 [IA-48] | 10 to 100 |
| CC(NC(=O)OC(C)(C)C)c1cccc(-c2nnc(-c3nc(-c4ccc(S(=O)(=O)C(C)C)cc4)cnc3N)o2)c1 (stereo not shown) [IA-154, tert-butyl N-[1-[3-[5-[3-amino-6-(4-isopropylsulfonylphenyl)pyrazin-2-yl]-1,3,4-oxadiazol-2-yl]phenyl]ethyl]carbamate] | ≤ 10 |

same assay, conditions: ATR Inhibition Ki values; 5 nM full-length ATR, 10 μM ATP

| Compound | Ki [nM] |
| --- | --- |
| CS(=O)(=O)c1ccc(-c2cnc(N)c(-c3nnc(-c4ccccc4)o3)n2)cc1 [IA-89, 5-(4-methylsulfonylphenyl)-3-(5-phenyl-1,3,4-oxadiazol-2-yl)pyrazin-2-amine] | ≤ 10 |
| C[S+]([O-])c1ccc(-c2cnc(N)c(-c3nnc(-c4ccccc4)o3)n2)cc1 (stereo not shown) [IA-274, 5-(4-methylsulfinylphenyl)-3-(5-phenyl-1,3,4-oxadiazol-2-yl)pyrazin-2-amine] | ≤ 10 |
| CNCc1ccc(-c2nnc(-c3nc(-c4ccc(S(=O)(=O)C(C)C)c(OC(F)(F)F)c4)cnc3N)o2)cc1 [IA-290, 5-[4-isopropylsulfonyl-3-(trifluoromethoxy)phenyl]-3-[5-[4-(methylaminomethyl)phenyl]-1,3,4-oxadiazol-2-yl]pyrazin-2-amine] | ≤ 10 |
| CNCc1ccc(-c2nnc(-c3nc(-c4ccc(S(=O)(=O)C(C)CCOC)cc4)cnc3N)o2)c(F)c1 (stereo not shown) [IA-332, 3-[5-[2-fluoro-4-(methylaminomethyl)phenyl]-1,3,4-oxadiazol-2-yl]-5-[4-(3-methoxy-1-methyl-propyl)sulfonylphenyl]pyrazin-2-amine] | ≤ 10 |
| CCc1cccc(NC(=O)c2nc(-c3ccc(S(C)(=O)=O)cc3)cnc2N)n1 [VII-4] | 10 to 100 |
| Cc1cccc(NC(=O)c2nc(-c3ccc(S(C)(=O)=O)cc3)cnc2N)n1 [VII-5] | 10 to 100 |
